In patent US20250255868A1, “HETEROCYCLIC COMPOUND ACTING AS KRAS G12D INHIBITOR” (Hangzhou Innogate Pharma Co., Ltd., priority 2021, published 2025):

How the values were obtained:
Assay type in all cases: cell-based
[1] = system: HPAC (human pancreatic cancer cell line, KRAS G12D mutation); test: 3D cell proliferation inhibition (CellTiter-Glo), HPAC; settings: 168 h, 3D culture, seven days, CTG
Procedure: (§1) Compound activity was indicated by AGS (human gastric cancer cell line, KRAS G12D mutation), GP2D (human colon cancer cell line, KRAS G12D mutation), HPAC (human pancreatic cancer cell line, KRAS G12D mutation) and AsPCl (human pancreatic cancer cell line, KRAS G12D mutation) 3D cell proliferation inhibition. The Cell Titer-Glo (CTG) method was adopted. Compound was dissolved with DMSO to 10 mM, and then diluted by medium. The upper medium of cells was removed, washed once with DPBS, added 2 mL of trypsin, and placed at 37° C. for a while. After cells were detached from the petri dish, 5 mL fresh medium was added and the suspension cells were centrifuged at 1000 rpm for 5 minutes at room temperature. Resuspend the cells with 5 mL of fresh culture medium, and use Countess™ to count cells. 200 nL compounds were added to a ultra-low attachment 384-well plate, and 40 μL cells were added to each well. After seven days of culture at 37° C., 5% CO2, CTG was added and the signal was recorded using Envision. The Inhibition rate is calculated using the following formula: Inhibition %=(Ave_H-Sample)/(Ave_H-Ave_L)×100%. Ave_H represents the average reading value of DMSO well, Sample represents the average reading value of compound well, and Ave_L represents the average reading value of 10 μM positive control well. The log value of concentration was taken as the X-axis, and the percentage inhibition rate was taken as the Y-axis. The dose-effect curve was fitted with log(inhibitor) vs. response-Variable slope of the analysis software GraphPad Prism 5. The IC50 value or inhibitory rate of each compound on cell proliferation was obtained.

[2] = system: AsPC1 (human pancreatic cancer cell line, KRAS G12D mutation); test: 3D cell proliferation inhibition (CellTiter-Glo), AsPC1; settings: ASPC1, 168 h, 3D culture, seven days, CTG
Procedure: as §1

[3] = system: AGS (human gastric cancer cell line, KRAS G12D mutation); test: 3D cell proliferation inhibition (CellTiter-Glo), AGS; settings: 168 h, 3D culture, 100 nM compound, seven days, CTG
Procedure: as §1, with “The” for “Compound activity was indicated by AGS (human gastric cancer cell line, KRAS G12D mutation), GP2D (human colon cancer cell line, KRAS G12D mutation), HPAC (human pancreatic cancer cell line, KRAS G12D mutation) and AsPCl (human pancreatic cancer cell line, KRAS G12D mutation) 3D cell proliferation inhibition. The”

[4] = system: GP2D (human colon cancer cell line, KRAS G12D mutation); test: 3D cell proliferation inhibition (CellTiter-Glo), GP2D; settings: 168 h, 3D culture, seven days, CTG
Procedure: as §1, with “The log value of concentration was taken as the X-axis, and the percentage inhibition rate was taken as the Y-axis. The dose-effect curve was fitted with log(inhibitor) vs. response-Variable slope of the analysis software GraphPad Prism 5. The IC50 value or inhibitory rate of each compound on cell proliferation was obtained.” left out

| Compound | IC50 [1] | IC50 [2] | inhibition at 0.1 µM [3] | IC50 [4] |
| --- | --- | --- | --- | --- |
| C#Cc1c(F)ccc2cc(O)cc(-c3c(Cl)cc4c(N5CC6CCC(C5)N6)nc(OCC56CCCN5CC(=C(F)F)C6)nc4c3F)c12 (centres unmarked) [Compound 30] | < 25 nM | – | – | – |
| C#Cc1c(F)ccc2cc(O)cc(-c3ncc4c(N5C6CCC5CNC6)nc(OC[C@@]56CCCN5C[C@H](F)C6)nc4c3F)c12 [Compound 21] | – | < 100 nM | – | – |
| CCc1c(F)ccc2cccc(-c3ncc4c(N5CC6CCC(C5)N6)nc(OCC56CCCN5CC(=C(F)F)C6)nc4c3F)c12 (centres unmarked) [Compound 14] | – | – | > 50% | – |
| C#Cc1c(F)ccc2cc(O)cc(-c3ncc4c(N5CCNC6(CC6)C5)nc(OC[C@@]56CCCN5C[C@H](F)C6)nc4c3F)c12 [Compound 22] | – | < 150 nM | – | – |
| C#Cc1cccc2cc(O)cc(-c3ncc4c(N5CC6CCC(C5)N6)nc(OCC56CCCN5CC(=C(F)F)C6)nc4c3F)c12 (centres unmarked) [Compound 10] | < 10 nM | < 5 nM | > 50% | < 0.5 nM |
| Oc1cc(-c2ncc3c(N4CCNC5(CC5)C4)nc(OC[C@@]45CCCN4C[C@H](F)C5)nc3c2F)c2c(F)cccc2c1 [Compound 1] | – | – | > 50% | – |
| C#Cc1c(F)ccc2cc(O)cc(-c3ncc4c(N5CC6CCC(C5)N6)nc(OCC56CCCN5CC(=C(F)F)C6)nc4c3F)c12 (centres unmarked) [Compound 20] | < 5 nM | – | – | – |
| C#Cc1c(F)ccc2cc(OC(C)=O)cc(-c3ncc4c(N5CC6CCC(C5)N6)nc(OCC56CCCN5CC(=C(F)F)C6)nc4c3F)c12 (centres unmarked) [Compound 28] | < 70 nM | – | – | – |
| FC(F)=C1CN2CCCC2(COc2nc(N3CC4CCC(C3)N4)c3cnc(-c4cccc5cccc(F)c45)c(F)c3n2)C1 (centres unmarked) [Compound 13] | – | – | > 50% | – |
| C#Cc1c(F)ccc2cccc(-c3ncc4c(N5CC6CCC(C5)N6)nc(OCC56CCCN5CC(=C(F)F)C6)nc4c3F)c12 (centres unmarked) [Compound 12] | < 70 nM | – | > 50% | – |
| C#Cc1c(F)ccc2cc(O)cc(-c3ncc4c(N5C6CCC5CNC6)nc(OCC56CCCN5CC(=C(F)F)C6)nc4c3F)c12 (centres unmarked) [Compound 23] | < 50 nM | – | – | – |
| C#Cc1c(F)ccc2cc(OP(=O)(O)O)cc(-c3ncc4c(N5CC6CCC(C5)N6)nc(OCC56CCCN5CC(=C(F)F)C6)nc4c3F)c12 (centres unmarked) [Compound 29] | < 10 nM | – | – | – |
| C#Cc1c(F)ccc2cc(O)cc(-c3ncc4c(N5CCNC6(CC6)C5)nc(OCC56CCCN5CC(=C(F)F)C6)nc4c3F)c12 (centres unmarked) [Compound 24] | < 70 nM | – | – | – |
| Oc1cc(-c2ncc3c(N4CC5CCC(C4)N5)nc(OCC45CCCN4CC(=C(F)F)C5)nc3c2F)c2c(F)cccc2c1 (centres unmarked) [Compound 4] | < 15 nM | – | > 50% | < 0.5 nM |
